Experiments:
Test in all cases: Competitive isoTOP-ABPP, cell lysates
Assay type in all cases: binding
[1] = biological target: LRBA C2675 (P50851) (Homo sapiens, UniProt P50851)
[2] = biological target: CDK5 C157 (Q00535) (Homo sapiens, UniProt Q00535); settings: for isoTOP-ABPP reactivity ratio, Q00535_C157 / isoTOP-ABPP reactivity profile ratio, Q00535_C157: 500 μm
[3] = biological target: USP16 C205 (Q9Y5T5) (Homo sapiens, UniProt Q9Y5T5); settings: for isoTOP-ABPP ratio, Q9Y5T5_C205: 500 μM, invitro
USP16 C205 (Q9Y5T5), sequence (Q9Y5T5 whole entry): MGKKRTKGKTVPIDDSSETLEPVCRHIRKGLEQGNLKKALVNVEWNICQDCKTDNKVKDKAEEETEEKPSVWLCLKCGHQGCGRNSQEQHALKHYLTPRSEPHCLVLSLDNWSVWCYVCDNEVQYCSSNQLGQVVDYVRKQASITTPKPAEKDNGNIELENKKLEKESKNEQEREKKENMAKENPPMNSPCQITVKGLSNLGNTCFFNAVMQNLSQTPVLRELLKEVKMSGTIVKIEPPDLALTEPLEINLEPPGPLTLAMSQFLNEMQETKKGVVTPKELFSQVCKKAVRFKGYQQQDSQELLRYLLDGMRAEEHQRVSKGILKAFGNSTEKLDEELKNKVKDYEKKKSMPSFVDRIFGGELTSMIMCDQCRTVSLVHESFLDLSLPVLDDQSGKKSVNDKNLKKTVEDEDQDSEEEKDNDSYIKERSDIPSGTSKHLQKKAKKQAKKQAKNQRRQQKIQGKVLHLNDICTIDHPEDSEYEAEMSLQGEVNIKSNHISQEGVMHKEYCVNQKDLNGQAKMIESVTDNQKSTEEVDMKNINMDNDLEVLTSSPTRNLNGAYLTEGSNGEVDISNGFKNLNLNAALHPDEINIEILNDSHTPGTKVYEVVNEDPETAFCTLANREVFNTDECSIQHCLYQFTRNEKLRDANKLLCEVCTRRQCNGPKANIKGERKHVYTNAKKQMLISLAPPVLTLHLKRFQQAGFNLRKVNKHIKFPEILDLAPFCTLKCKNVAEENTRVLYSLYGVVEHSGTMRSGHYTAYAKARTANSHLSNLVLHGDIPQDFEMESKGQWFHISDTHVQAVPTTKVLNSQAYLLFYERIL

[4] = biological target: T1, KDM4B C694 (O94953) (Homo sapiens, UniProt O94953); settings: for isoTOP-ABPP reactivity profile ratio, O94953_C694: 500 μm; for isoTOP-ABPP ratio, O94953_C694: 500 μM, invitro
T1 sequence (O94953 1-1096): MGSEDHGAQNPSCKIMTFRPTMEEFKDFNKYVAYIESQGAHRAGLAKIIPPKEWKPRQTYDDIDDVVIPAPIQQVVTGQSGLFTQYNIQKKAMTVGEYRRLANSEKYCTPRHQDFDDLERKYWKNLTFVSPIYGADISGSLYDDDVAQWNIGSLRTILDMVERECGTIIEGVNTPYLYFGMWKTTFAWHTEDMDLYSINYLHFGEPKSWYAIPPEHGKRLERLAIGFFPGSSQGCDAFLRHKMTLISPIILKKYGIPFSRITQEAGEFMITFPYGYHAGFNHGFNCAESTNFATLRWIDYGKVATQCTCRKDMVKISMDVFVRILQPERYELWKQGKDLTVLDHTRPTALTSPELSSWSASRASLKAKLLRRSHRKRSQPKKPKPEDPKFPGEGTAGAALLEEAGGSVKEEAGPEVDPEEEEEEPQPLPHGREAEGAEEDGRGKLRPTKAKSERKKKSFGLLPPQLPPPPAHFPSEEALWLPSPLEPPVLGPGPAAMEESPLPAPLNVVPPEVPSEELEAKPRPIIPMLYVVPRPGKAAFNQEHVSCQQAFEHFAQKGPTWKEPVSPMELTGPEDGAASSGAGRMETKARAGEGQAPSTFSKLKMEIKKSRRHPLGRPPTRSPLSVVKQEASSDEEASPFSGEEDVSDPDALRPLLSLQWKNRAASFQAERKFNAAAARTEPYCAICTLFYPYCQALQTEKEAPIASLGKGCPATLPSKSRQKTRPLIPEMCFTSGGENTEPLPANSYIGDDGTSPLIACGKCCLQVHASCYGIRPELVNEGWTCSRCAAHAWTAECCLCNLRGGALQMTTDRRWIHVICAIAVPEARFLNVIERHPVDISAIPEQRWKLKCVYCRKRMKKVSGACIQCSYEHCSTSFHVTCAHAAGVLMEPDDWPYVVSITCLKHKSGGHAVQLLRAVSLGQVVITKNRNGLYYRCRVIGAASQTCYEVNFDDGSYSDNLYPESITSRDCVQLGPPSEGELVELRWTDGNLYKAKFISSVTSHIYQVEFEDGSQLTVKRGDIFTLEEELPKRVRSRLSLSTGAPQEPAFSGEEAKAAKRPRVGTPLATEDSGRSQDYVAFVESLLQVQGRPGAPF

[5] = biological target: RRAGC C358 (Q9HB90) (Homo sapiens, UniProt Q9HB90)
RRAGC C358 (Q9HB90), sequence (Q9HB90 2-399 limits assumed): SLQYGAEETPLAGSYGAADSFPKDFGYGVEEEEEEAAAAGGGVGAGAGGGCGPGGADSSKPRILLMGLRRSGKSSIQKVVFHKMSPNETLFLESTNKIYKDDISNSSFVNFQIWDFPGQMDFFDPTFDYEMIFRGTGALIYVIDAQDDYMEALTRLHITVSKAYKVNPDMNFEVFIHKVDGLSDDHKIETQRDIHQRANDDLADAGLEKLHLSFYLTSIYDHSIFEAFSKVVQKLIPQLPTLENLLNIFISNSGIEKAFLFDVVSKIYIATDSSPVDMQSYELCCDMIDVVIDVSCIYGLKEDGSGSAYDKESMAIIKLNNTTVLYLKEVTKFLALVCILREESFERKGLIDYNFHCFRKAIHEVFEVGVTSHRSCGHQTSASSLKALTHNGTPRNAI
RRAGC C358 (Q9HB90), sequence (Q7L523 whole entry partner): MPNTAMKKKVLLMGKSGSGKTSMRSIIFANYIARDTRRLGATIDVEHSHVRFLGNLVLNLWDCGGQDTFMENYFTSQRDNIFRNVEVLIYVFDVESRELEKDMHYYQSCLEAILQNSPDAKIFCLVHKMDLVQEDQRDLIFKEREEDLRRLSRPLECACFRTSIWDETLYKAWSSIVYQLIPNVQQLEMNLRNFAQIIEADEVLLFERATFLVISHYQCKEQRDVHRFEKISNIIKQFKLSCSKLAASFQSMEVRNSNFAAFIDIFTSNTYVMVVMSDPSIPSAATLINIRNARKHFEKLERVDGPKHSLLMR

LRBA C2675 (P50851), sequence (P50851 whole entry): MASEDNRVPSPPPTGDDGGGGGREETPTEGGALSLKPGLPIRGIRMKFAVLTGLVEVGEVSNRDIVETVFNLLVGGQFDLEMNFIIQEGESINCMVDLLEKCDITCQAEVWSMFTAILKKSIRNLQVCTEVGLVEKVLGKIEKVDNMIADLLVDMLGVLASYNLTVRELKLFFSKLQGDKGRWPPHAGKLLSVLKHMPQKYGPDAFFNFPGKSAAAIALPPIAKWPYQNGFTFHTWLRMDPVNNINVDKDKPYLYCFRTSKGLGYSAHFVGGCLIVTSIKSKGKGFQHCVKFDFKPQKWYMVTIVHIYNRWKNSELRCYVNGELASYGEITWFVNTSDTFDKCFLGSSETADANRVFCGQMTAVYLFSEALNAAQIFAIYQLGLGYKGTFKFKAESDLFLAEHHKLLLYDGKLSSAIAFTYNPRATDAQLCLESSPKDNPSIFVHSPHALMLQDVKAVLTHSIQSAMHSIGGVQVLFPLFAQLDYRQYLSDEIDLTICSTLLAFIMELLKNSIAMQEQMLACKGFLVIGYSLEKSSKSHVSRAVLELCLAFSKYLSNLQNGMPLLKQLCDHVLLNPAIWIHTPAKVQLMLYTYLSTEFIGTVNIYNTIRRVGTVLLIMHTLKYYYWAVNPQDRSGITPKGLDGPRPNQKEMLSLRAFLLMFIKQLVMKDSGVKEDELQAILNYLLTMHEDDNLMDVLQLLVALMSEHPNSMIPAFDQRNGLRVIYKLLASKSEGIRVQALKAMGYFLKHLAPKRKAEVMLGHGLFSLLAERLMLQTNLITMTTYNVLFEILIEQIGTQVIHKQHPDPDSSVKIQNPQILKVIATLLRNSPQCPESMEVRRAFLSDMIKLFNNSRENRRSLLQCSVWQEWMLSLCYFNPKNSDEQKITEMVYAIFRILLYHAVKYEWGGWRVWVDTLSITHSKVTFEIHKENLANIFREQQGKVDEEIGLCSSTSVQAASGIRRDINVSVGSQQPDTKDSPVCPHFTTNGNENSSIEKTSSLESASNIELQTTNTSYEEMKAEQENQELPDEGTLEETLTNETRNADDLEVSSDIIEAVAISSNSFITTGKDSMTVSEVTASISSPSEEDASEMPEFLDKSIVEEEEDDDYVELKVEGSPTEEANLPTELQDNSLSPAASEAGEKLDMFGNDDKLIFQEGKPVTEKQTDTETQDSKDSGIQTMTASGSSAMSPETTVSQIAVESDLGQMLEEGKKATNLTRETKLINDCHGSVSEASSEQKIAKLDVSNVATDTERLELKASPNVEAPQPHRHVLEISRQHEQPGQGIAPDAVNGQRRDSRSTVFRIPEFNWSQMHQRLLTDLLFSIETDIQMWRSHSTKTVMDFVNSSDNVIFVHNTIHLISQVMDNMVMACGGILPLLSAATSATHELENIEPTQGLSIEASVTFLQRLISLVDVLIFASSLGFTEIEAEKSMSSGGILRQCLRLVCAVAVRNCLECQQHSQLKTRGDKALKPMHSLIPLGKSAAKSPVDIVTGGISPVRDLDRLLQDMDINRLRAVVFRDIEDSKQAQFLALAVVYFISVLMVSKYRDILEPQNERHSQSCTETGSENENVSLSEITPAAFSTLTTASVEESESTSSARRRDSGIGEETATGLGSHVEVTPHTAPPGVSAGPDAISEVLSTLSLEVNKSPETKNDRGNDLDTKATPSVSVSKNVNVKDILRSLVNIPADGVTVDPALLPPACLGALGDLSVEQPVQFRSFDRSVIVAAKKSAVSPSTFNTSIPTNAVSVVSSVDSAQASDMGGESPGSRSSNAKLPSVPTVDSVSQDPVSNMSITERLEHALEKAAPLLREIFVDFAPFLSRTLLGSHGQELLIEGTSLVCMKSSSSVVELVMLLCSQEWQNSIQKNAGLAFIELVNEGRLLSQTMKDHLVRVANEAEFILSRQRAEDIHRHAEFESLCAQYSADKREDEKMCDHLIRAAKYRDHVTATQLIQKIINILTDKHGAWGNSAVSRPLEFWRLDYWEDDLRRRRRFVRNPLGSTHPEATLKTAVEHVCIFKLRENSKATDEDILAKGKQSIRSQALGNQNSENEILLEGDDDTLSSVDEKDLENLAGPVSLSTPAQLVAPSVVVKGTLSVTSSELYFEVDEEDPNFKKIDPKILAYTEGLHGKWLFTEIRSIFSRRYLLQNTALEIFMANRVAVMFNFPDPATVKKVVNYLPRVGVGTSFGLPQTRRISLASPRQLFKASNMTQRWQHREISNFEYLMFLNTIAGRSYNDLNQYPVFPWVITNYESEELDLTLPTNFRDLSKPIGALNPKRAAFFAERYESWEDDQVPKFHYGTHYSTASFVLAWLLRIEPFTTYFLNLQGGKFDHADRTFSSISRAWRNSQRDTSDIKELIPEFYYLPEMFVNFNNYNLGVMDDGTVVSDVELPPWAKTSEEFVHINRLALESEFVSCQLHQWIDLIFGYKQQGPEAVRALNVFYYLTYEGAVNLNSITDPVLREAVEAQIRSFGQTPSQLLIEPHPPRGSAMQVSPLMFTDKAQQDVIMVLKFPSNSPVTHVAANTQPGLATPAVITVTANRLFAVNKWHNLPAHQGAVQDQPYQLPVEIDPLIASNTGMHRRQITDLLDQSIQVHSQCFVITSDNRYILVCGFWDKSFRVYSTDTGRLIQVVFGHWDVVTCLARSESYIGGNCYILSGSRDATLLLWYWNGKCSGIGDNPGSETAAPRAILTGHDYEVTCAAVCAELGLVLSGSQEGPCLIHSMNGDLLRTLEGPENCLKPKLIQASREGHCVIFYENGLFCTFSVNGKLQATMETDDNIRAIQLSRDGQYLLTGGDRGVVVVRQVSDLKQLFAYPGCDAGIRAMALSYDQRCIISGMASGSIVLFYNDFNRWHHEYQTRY
CDK5 C157 (Q00535), sequence (Q00535 whole entry): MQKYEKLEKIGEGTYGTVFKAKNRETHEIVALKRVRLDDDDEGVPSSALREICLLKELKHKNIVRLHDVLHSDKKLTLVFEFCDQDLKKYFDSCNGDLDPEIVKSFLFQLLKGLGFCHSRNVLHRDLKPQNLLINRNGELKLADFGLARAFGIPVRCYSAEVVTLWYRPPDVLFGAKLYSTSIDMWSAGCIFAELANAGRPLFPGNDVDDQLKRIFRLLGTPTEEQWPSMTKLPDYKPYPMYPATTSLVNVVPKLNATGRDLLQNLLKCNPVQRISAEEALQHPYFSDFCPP

Compound: O=C(CCl)N(Cc1ccc(F)cc1)C12CC3CC(CC(C3)C1)C2 [compound 34]
- isoTOP-ABPP reactivity ratio, P50851_C2675 ([1]; 500 μm, in-vitro_ramos): 1.1
- isoTOP-ABPP reactivity ratio, Q00535_C157 ([2]; in-vitro_ramos_231): 0.7

Compound: N#CC(=Cc1ccc(-c2ccccc2Cl)o1)C(N)=O [compound 42]
- isoTOP-ABPP reactivity profile ratio, Q9Y5T5_C205 ([3]; 500 μm, in-vitro_ramos): 1.5
- isoTOP-ABPP reactivity profile ratio, O94953_C694 ([4]; in-vitro_ramos): 0.9

Compound: COc1ccccc1OCCNC(=O)CCl [compound 28]
- isoTOP-ABPP ratio (reactivity profile), Q9HB90_C358 ([5]; 500 μm in-vitro ramos_231): 1.1
- isoTOP-ABPP ratio (reactivity profile), Q00535_C157 ([2]; 500 μm in-vitro ramos): 1.0
- isoTOP-ABPP ratio (reactivity profile), Q00535_C157 ([2]; 500 μm in-vitro ramos_231): 0.9
- isoTOP-ABPP ratio (reactivity profile), Q9Y5T5_C205 ([3]; 500 μm in-vitro ramos): 1.6

Compound: O=C(CCl)N1CCC(C(O)(c2ccccc2)c2ccccc2)CC1 [compound 20]
- isoTOP-ABPP ratio (reactivity profile), Q00535_C157 ([2]; 500 μm in-vitro ramos): 2.0
- isoTOP-ABPP ratio (reactivity profile), O94953_C694 ([4]; 500 μm in-vitro ramos): 2.0
- isoTOP-ABPP ratio (reactivity profile), O94953_C694 ([4]; 500 μm in-vitro ramos_231): 2.8

Compound: CC(Br)C(=O)Nc1cc(C(F)(F)F)cc(C(F)(F)F)c1 (centres unmarked) [compound 24]
- isoTOP-ABPP ratio (reactivity profile), Q9HB90_C358 ([5]; 500 μm in-vitro ramos): 0.9
- isoTOP-ABPP ratio (reactivity profile), P50851_C2675 ([1]; 500 μm in-vitro ramos): 1.0

Compound: Cc1ccc(C=C(C#N)C(=O)NCCN2CCOCC2)cc1 [compound 41]
- isoTOP-ABPP reactivity ratio, Q9HB90_C358 ([5]; 500 μm, in-vitro_ramos_231): 1.3
- isoTOP-ABPP reactivity ratio, P50851_C2675 ([1]; 500 μm, in-vitro_ramos_231): 1.9
- isoTOP-ABPP reactivity ratio, Q00535_C157 ([2]; in-vitro_ramos_231): 1.5
- isoTOP-ABPP reactivity ratio, Q9Y5T5_C205 ([3]; 500 μm, in-vitro_ramos_231): 0.8

Compound: O=C(CCl)NC(=O)NC12CC3CC(CC(C3)C1)C2 [compound 12]
- isoTOP-ABPP ratio, P50851_C2675 ([1]; 500 μM, invitro, ramos): 1.5
- isoTOP-ABPP ratio, Q00535_C157 ([2]; 500 μM, invitro, ramos): 1.0
- isoTOP-ABPP ratio, Q9Y5T5_C205 [3]; 231: 2.2

Compound: COc1cc(NC(=O)CCl)cc(OC)c1 [compound 43]
- isoTOP-ABPP reactivity profile ratio, Q00535_C157 ([2]; in-vitro_ramos): 1.2
- isoTOP-ABPP reactivity profile ratio, O94953_C694 ([4]; in-vitro_ramos_231): 20.0

Compound: O=C(CCl)NCCc1c[nH]c2ccccc12 [compound 13]
- isoTOP-ABPP ratio, Q9HB90_C358 ([5]; 500 μM, invitro, 231): 1.5
- isoTOP-ABPP ratio, Q9Y5T5_C205 ([3]; ramos): 3.3
- isoTOP-ABPP ratio, O94953_C694 [4]; 231: 1.4
- isoTOP-ABPP ratio, O94953_C694 ([4]; ramos): 1.1

Compound: O=C(CCl)N1CCOCC1 [compound 22]
- isoTOP-ABPP ratio (reactivity profile), Q9HB90_C358 ([5]; 500 μm in-vitro ramos_231): 1.7
- isoTOP-ABPP ratio (reactivity profile), P50851_C2675 ([1]; 500 μm in-vitro ramos): 1.1
- isoTOP-ABPP ratio (reactivity profile), P50851_C2675 ([1]; 500 μm in-vitro ramos_231): 1.1
- isoTOP-ABPP ratio (reactivity profile), Q00535_C157 ([2]; 500 μm in-vitro ramos): 0.9
- isoTOP-ABPP ratio (reactivity profile), Q9Y5T5_C205 ([3]; 500 μm in-vitro ramos): 1.6

Compound: COc1ccc(C2CC(c3cccs3)=NN2C(=O)CCl)cc1 (centres unmarked) [compound 4]
- R value (DMSO/fragment) ([5]; 250 μM, in vitro, MDA-MB-231): 1.5
- R value (DMSO/fragment) ([1]; 250 μM, in vitro, MDA-MB-231): 1.1
- R value (DMSO/fragment) ([2]; 250 μM, in vitro, Ramos): 1.3
- R value (DMSO/fragment) ([3]; 250 μM, in vitro, Ramos): 20.0
- R value (DMSO/fragment) ([4]; 250 μM, in vitro, MDA-MB-231): 20.0

Compound: CC(C)(C)c1cc(NC(=O)CCl)on1 [compound 32]
- isoTOP-ABPP reactivity ratio, Q9HB90_C358 ([5]; 500 μm, in-vitro_ramos): 1.2
- isoTOP-ABPP reactivity ratio, Q9HB90_C358 ([5]; 500 μm, in-vitro_ramos_231): 1.9
- isoTOP-ABPP reactivity ratio, P50851_C2675 ([1]; 500 μm, in-vitro_ramos): 1.1
- isoTOP-ABPP reactivity ratio, P50851_C2675 ([1]; 500 μm, in-vitro_ramos_231): 1.8
- isoTOP-ABPP reactivity ratio, Q00535_C157 ([2]; in-vitro_ramos): 1.7
- isoTOP-ABPP reactivity ratio, Q00535_C157 ([2]; in-vitro_ramos_231): 1.7

Compound: O=C(CCl)Nc1ccc(-c2ccccc2)cc1 [compound 52]
- isoTOP-ABPP reactivity profile ratio, O94953_C694 ([4]; in-vitro_ramos): 1.4

Compound: O=C(CCl)NC12CC3CC(CC(C3)C1)C2 [compound 21]
- isoTOP-ABPP ratio (reactivity profile), Q9HB90_C358 ([5]; 500 μm in-vitro ramos_231): 1.2
- isoTOP-ABPP ratio (reactivity profile), P50851_C2675 ([1]; 500 μm in-vitro ramos): 1.5
- isoTOP-ABPP ratio (reactivity profile), P50851_C2675 ([1]; 500 μm in-vitro ramos_231): 0.9
- isoTOP-ABPP ratio (reactivity profile), Q9Y5T5_C205 ([3]; 500 μm in-vitro ramos_231): 1.6
- isoTOP-ABPP ratio (reactivity profile), O94953_C694 ([4]; 500 μm in-vitro ramos): 1.8

Compound: C=CC(=O)N1CCC(Cc2ccccc2)CC1 [compound 53]
- isoTOP-ABPP reactivity profile ratio, Q9HB90_C358 ([5]; 500 μm, in-vitro_ramos): 0.6
- isoTOP-ABPP reactivity profile ratio, Q00535_C157 ([2]; in-vitro_ramos): 0.8
- isoTOP-ABPP reactivity profile ratio, Q00535_C157 ([2]; in-vitro_ramos_231): 1.2
- isoTOP-ABPP reactivity profile ratio, Q9Y5T5_C205 ([3]; 500 μm, in-vitro_ramos_231): 1.1

Compound: O=C(/C=C/c1ccccc1)Nc1cc(C(F)(F)F)cc(C(F)(F)F)c1 [compound 26]
- isoTOP-ABPP ratio (reactivity profile), P50851_C2675 ([1]; 500 μm in-vitro ramos): 0.9
- isoTOP-ABPP ratio (reactivity profile), Q00535_C157 ([2]; 500 μm in-vitro ramos): 0.9

Compound: O=C(CCl)Nc1cccc2ncccc12 [compound 51]
- isoTOP-ABPP reactivity profile ratio, P50851_C2675 ([1]; 500 μm, in-vitro_ramos): 0.9
- isoTOP-ABPP reactivity profile ratio, Q00535_C157 ([2]; in-vitro_ramos): 1.0
- isoTOP-ABPP reactivity profile ratio, Q9Y5T5_C205 ([3]; 500 μm, in-vitro_ramos): 3.2
- isoTOP-ABPP reactivity profile ratio, Q9Y5T5_C205 ([3]; 500 μm, in-vitro_ramos_231): 1.7
- isoTOP-ABPP reactivity profile ratio, O94953_C694 ([4]; in-vitro_ramos): 1.4
